ChEMBL document CHEMBL1909046, “DrugMatrix in vitro pharmacology data”

What was measured:
[1] = biological target: T1, Cysteinyl leukotriene receptor 1 (Homo sapiens, UniProt Q9Y271); assay type: cell membranes, CHO-K1, Membrane; conditions: cho-k1; note: in other assays of this panel Not Active means under 50% inhibition at 10 µM
T1 sequence (Q9Y271 whole entry): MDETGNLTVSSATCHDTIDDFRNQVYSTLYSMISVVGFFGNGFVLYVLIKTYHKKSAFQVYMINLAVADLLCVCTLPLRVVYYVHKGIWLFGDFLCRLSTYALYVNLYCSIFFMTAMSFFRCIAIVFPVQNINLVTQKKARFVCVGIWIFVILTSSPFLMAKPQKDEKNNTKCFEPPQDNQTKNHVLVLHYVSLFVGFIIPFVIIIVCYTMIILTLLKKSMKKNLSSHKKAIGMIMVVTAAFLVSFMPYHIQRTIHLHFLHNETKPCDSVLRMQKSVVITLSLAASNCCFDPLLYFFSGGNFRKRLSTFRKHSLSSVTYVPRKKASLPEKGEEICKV

[2] = DRUGMATRIX: Calcium Channel Type L, Phenylalkylamine radioligand binding (ligand: [3H] (-)-Desmethoxyverapamil (D-888)); assay type: cell membranes, Rattus norvegicus, Wistar, Brain, Membrane; conditions: Not Active = under 50% inhibition at 10 µM
[3] = DRUGMATRIX: Calcium Channel Type L, Dihydropyridine radioligand binding (ligand: [3H] Nitrendipine); assay type: cell membranes, Rattus norvegicus, Wistar, Cerebral cortex, Membrane; conditions: Not Active = under 50% inhibition at 10 µM
[4] = biological target: T2, Amine oxidase [flavin-containing] A (Homo sapiens, UniProt P21397); experiment: DRUGMATRIX: Monoamine Oxidase MAO-A enzyme inhibition (substrate: Kynuramine); design: species or system BTI-TN-5B1-4; conditions: bti-tn-5b1-4; Not Active = under 50% inhibition at 10 µM
T2 sequence (P21397 whole entry): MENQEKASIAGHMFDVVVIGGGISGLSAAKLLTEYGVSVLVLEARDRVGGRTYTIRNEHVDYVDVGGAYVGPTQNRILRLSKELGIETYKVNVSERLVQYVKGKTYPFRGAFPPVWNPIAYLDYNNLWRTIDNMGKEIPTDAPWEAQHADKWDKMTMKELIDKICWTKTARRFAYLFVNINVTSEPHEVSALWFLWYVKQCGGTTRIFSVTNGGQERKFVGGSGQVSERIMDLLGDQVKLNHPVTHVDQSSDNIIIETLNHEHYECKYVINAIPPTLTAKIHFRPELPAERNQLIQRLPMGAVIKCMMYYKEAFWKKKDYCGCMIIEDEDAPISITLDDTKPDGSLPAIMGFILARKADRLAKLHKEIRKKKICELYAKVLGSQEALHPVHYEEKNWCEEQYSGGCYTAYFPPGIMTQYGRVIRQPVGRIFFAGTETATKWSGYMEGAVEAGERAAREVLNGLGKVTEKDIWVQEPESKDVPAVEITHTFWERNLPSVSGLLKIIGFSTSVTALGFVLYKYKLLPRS

B2 bradykinin receptor = biological target: T3, B2 bradykinin receptor (Homo sapiens, UniProt P30411); assay type: cell membranes, Membrane; conditions: chem-1; note: in other assays of this panel Not Active means under 50% inhibition at 10 µM
T3 sequence (P30411 whole entry): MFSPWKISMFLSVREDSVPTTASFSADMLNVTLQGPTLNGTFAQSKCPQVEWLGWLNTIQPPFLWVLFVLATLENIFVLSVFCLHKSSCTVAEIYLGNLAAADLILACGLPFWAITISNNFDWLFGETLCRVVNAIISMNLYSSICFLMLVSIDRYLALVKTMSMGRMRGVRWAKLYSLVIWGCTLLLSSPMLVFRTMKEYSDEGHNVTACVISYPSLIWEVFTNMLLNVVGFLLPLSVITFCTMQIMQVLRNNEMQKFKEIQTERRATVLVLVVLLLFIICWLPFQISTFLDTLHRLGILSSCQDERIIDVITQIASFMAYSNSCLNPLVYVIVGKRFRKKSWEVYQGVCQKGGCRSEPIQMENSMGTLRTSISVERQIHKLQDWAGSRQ

[5] = biological target: T4, Alpha-1D adrenergic receptor (Homo sapiens, UniProt P25100); assay type: cell membranes, HEK293, Membrane; conditions: for Ki: read-out: Ki; for all read-outs here: in other assays of this panel Not Active means under 50% inhibition at 10 µM
T4 sequence (P25100 whole entry): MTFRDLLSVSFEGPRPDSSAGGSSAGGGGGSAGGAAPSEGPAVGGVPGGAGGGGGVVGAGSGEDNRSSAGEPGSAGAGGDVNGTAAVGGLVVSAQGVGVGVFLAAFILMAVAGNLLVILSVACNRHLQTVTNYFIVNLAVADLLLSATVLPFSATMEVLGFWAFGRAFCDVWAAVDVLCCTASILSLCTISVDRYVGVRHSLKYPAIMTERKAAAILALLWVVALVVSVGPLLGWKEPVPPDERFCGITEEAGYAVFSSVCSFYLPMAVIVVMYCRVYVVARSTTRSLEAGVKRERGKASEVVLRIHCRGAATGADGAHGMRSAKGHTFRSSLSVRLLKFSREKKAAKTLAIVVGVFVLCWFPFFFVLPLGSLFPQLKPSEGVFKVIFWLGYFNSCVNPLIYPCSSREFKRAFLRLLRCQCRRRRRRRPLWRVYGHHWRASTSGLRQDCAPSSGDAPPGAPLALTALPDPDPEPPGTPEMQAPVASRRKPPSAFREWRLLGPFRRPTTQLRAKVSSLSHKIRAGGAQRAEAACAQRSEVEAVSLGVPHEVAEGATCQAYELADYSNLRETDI

Substance-P receptor = Substance-P receptor (Homo sapiens, UniProt P25103); assay type: cell membranes, CHO, Membrane; conditions: cho; note: in other assays of this panel Not Active means under 50% inhibition at 10 µM
Chain of Substance-P receptor (P25103 whole entry): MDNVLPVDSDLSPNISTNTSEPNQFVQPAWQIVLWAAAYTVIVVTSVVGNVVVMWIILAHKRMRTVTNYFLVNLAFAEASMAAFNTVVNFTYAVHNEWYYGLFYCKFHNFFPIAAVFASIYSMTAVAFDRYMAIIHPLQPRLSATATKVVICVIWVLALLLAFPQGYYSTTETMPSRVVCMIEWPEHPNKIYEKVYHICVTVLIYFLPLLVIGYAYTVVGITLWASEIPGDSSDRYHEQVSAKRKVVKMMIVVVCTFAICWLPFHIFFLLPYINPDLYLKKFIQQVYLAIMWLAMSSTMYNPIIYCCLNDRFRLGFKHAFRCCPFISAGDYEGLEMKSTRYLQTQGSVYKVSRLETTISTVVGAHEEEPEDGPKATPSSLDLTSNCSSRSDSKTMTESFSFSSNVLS

Structure (SMILES)	IC50 [1]	IC50 [2]	Ki [2]	IC50 [3]	Ki [3]	IC50 [4]	IC50 (B2 bradykinin receptor)	IC50 ([5]; hek293)	IC50 (Substance-P receptor)	IC50 ([5]; read-out: IC50) [nM]	Ki [5] [nM]	IC50 ([2]; read-out: IC50) [nM]	Ki ([2]; read-out: Ki) [nM]
Cc1c(O)c(=O)ccn1C [DEFERIPRONE]	Not Active	Not Active	Not Active	Not Active	Not Active	Not Active	Not Active	Not Active	Not Active				
CNCCCN1c2ccccc2CCc2ccccc21 [DESIPRAMINE]	Not Active	Not Active	Not Active	Not Active	Not Active	Not Active	Not Active	Not Active	Not Active				
O=c1oc2ccccc2c(O)c1Cc1c(O)c2ccccc2oc1=O [DICUMAROL]	Not Active	Not Active	Not Active	Not Active	Not Active	Not Active	Not Active	Not Active	Not Active				
C[C@H]1O[C@@H](O[C@H]2[C@@H](O)C[C@H](O[C@H]3[C@@H](O)C[C@H](O[C@H]4CC[C@@]5(C)[C@H](CC[C@@H]6[C@@H]5C[C@@H](O)[C@]5(C)[C@@H](C7=CC(=O)OC7)CC[C@]65O)C4)O[C@@H]3C)O[C@@H]2C)C[C@H](O)[C@@H]1O [DIGOXIN]	Not Active	Not Active	Not Active	Not Active	Not Active	Not Active	Not Active	Not Active	Not Active				
CC(C)[C@@]1(NC(=O)[C@@H]2C[C@@H]3c4cccc5[nH]cc(c45)C[C@H]3N(C)C2)O[C@@]2(O)[C@@H]3CCCN3C(=O)[C@H](Cc3ccccc3)N2C1=O.CS(=O)(=O)O [DIHYDROERGOCRISTINE MESYLATE]	Not Active	Not Active	Not Active	Not Active	Not Active	Not Active	Not Active		Not Active	7.37	3.62		
CC(=O)O[C@@]12CO[C@@H]1C[C@H](O)[C@@]1(C)C(=O)[C@H](O)C3=C(C)[C@@H](OC(=O)[C@H](O)[C@@H](NC(=O)OC(C)(C)C)c4ccccc4)C[C@@](O)([C@@H](OC(=O)c4ccccc4)[C@H]21)C3(C)C.O.O.O [DOCETAXEL]	Not Active	Not Active	Not Active	Not Active	Not Active	Not Active	Not Active	Not Active	Not Active				
C[C@H]1c2cccc(O)c2C(=O)C2=C(O)[C@]3(O)C(=O)C(C(N)=O)=C(O)[C@@H](N(C)C)[C@@H]3[C@@H](O)[C@@H]21.O [DOXYCYCLINE]	Not Active	Not Active	Not Active	Not Active	Not Active	Not Active	Not Active	Not Active	Not Active				
O=C(CCCN1CC=C(n2c(=O)[nH]c3ccccc32)CC1)c1ccc(F)cc1 [DROPERIDOL]	Not Active			Not Active	Not Active	Not Active	Not Active		Not Active	83	41	4160	4050
CC(C)[C@H]1C(=O)N2CCC[C@H]2[C@]2(O)O[C@](NC(=O)[C@@H]3C=C4c5cccc6[nH]cc(c56)C[C@H]4N(C)C3)(C(C)C)C(=O)N12 [ERGOCORNINE]	Not Active	Not Active	Not Active	Not Active	Not Active	Not Active	Not Active		Not Active	18	8.75		
C[C@]12CC[C@@H]3c4ccc(O)cc4CC[C@H]3[C@@H]1CCC2=O [ESTRONE]	Not Active	Not Active	Not Active	Not Active	Not Active	Not Active	Not Active	Not Active	Not Active				
OC(Cn1cncn1)(Cn1cncn1)c1ccc(F)cc1F [FLUCONAZOLE]	Not Active	Not Active	Not Active	Not Active	Not Active	Not Active	Not Active	Not Active	Not Active				
